From patent US20050267076A1 (priority 2004, published 2005)
Read-outs that look alike come from different tables or passages of the source.

How the values were obtained:
Long-Evans rats = assay: 8 hour retention test on a twelve-arm radial maze (spatial memory); assay type: in vivo, rat; conditions: vs vehicle, t(11)=2.69, p<0.02
Protocol: 12-arm maze test: Behavioral testing was conducted by an experimenter who was blind to drug treatment. 12 Long-Evans rats trained to use a win-shift strategy were given an information trial. During the information trial, 5 of the 12 arms of the 12 arm maze were blocked so that rats were not able to consume food from those blocked arms but could obtain food from each of the 7 open arms. After this session rats were moved to their home cage and placed back in the animal holding room. […] A retroactive memory error is made when the rat enters an arm that was […] on the information trial.
12 rats (divided into three groups) were used in the experiment. Sixty minutes prior to the information session, the rats were injected intraperitoneally (IP) with 150 mg/kg ABPA (Saegis Pharmaceuticals, Inc.), 3 mg/kg donepezil, or combination of 150 mg/kg ABPA and 3 mg/kg donepezil. Physiological saline (NaCl) was used as vehicle. Treatment order was counterbalanced among three groups such that each group (N=4) received a different order of vehicle, ABPA, donepezil, and ABPA+donepezil injection across days, for a total of three tests for each treatment in all subjects.

rats = assay type: in vivo, rat; conditions: for performance in the object recognition task: vs saline; for Recognition Score: saline 61%
Protocol: The experimental protocol is as follows:
[…]. Both drugs were administered by intraperitoneal (IP) injection. […].

humans = conditions: cited from earlier work
[1] = cited from earlier work
[2] = in vivo; cited from earlier work

| SMILES | retention test performance on the 12-arm maze (Long-Evans rats; 3 mg/kg donepezil IP 60 min prior to information session) | performance in the object recognition task (rats; donepezil 1.7 mg/kg IP 30 min prior to information trial) | Recognition Score (rats; donepezil alone at 0.56 mg/kg) [%] | Recognition Score (rats; donepezil alone at 1 mg/kg) [%] | cognitive effect in Alzheimer's Disease patients (humans; Barner and Gray, 1998, Rogers and Friedhoff) | side effect profile in humans (humans; human, in vivo) | retention test performance on the 12-arm maze (Long-Evans rats; 150 mg/kg ABPA IP 60 min prior to information session) | performance in the object recognition task (rats; ABPA 3 and 30 mg/kg IP 30 min prior to information trial, delay of 6 hours) | performance in the object recognition task (rats; ABPA 10, 100, 170, and 300 mg/kg IP 30 min prior to information trial, delay of 6 hours) | Recognition Score (rats; ABPA alone at 3 mg/kg) [%] | Recognition Score (rats; ABPA alone at 10 mg/kg) [%] | water solubility [1] | blood brain barrier crossing [2] |
| --- | --- | --- | --- | --- | --- | --- | --- | --- | --- | --- | --- | --- | --- |
| COc1cc2c(cc1OC)C(=O)C(CC1CCN(Cc3ccccc3)CC1)C2 (racemic) [donepezil, (±)-2,3-dihydro-5,6-dimethoxy-2-[[1-(phenylmethyl)-4-piperidinyl]methyl]-1H-inden-1-one, reference compound] | improved performance | significantly improved performance | 62 | 63 | slight cognitive improvements | cholinergic side effect profile | – | – | – | – | – | – | – |
| CCCCP(=O)(O)CCCN [ABPA, 3-aminopropyl-(n-butyl)-phosphinic acid] | – | – | – | – | – | – | improved performance | no beneficial effect | significantly enhanced performance | 61 | 70 | highly water-soluble | readily crosses the blood brain barrier |
